{
  "source": "patent US20250248993A1",
  "about": "“CAMPTOTHECIN DERIVATIVES THAT BIND TO DDX5 PROTEIN AND PRODRUGS THEREOF” (priority 2022, published 2025)",
  "key": {"[1]": {"test_system": "survivin, cIAP2, Mcl-1, and XIAP", "assay": "Western blot, expression inhibition of anti-apoptotic proteins in FaDu cell line", "assay_type": "cell-based", "settings": "FaDu, 0, 10, 100 nM, 24 hours"}, "[2]": {"settings": "dose more than 10 times higher than a clinically applicable dose; cited from earlier work"}, "[3]": {"test_system": "various cancer lines", "settings": "cited from earlier work"}, "[4]": {"target": "DDX5 (Homo sapiens, UniProt P17844)", "sequence (P17844 whole entry)": "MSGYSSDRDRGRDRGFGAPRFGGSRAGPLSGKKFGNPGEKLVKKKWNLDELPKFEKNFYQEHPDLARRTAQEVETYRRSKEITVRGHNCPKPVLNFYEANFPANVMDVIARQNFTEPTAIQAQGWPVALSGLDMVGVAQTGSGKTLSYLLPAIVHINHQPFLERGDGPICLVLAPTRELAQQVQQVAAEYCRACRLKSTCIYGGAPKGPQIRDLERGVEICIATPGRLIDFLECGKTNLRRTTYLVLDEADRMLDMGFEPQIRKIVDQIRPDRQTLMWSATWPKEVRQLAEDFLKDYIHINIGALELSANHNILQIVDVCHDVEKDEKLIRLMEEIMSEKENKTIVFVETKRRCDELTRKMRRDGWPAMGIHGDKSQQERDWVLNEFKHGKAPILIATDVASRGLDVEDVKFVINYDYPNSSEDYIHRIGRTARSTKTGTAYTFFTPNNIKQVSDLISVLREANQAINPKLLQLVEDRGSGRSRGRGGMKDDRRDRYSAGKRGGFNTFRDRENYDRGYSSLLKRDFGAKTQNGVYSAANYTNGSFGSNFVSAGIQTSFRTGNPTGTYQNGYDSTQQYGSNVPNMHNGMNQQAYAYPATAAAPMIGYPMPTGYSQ", "assay": "Western blot, DDX5 degradation in FaDu and A549 cell lines", "assay_type": "cell-based", "design": "endogenous in cells; host or cells: FaDu, A549", "settings": "FaDu and A549, 0, 10, 100 nM"}, "[5]": {"assay": "Lactone to carboxylate form conversion at pH 7.4", "assay_type": "physicochemical", "settings": "pH 7.4, 37° C.", "protocol": "Subsequently, it was centrifuged under conditions of 4° C., 2 minutes, and 13000 RCF, and a supernatant was used as a sample.\nThe column used was a Cortecs C18 2.7 μm, 4.6×50 mm column, and analysis was conducted under the following conditions: 1) 20 min: 5% B, 2) sample injection, 3) 2 min: 5% B, 4) 10 min: 5% B→50% B, and 5) 1 min: 50% B.\nTo measure changes over time, a sample chamber was maintained at 37° C. and a sample was set to be injected at each measurement time. The measurement time was set to 0, 20, 40, 60, 90, 120, 180, 240, 300, 360, 480, 600, and 720 minutes.\nThe content of each of lactone and carboxylate was calculated from the peak area thereof. Since the absorption coefficients of lactone and carboxylate are different, the lactone area was obtained by multiplying the carboxylate area by the equation below."}, "[6]": {"settings": "mouse, in vivo"}, "[7]": {"assay": "in vivo", "settings": "NOD SCID, mouse, 1 mg/kg, Plasma Concentration"}, "[8]": {"test_system": "FaDu cell line", "assay": "Cell viability assay (CellTiter-Glo), FaDu cell line", "assay_type": "cell-based", "settings": "FaDu not expressing ABCG2, 3 days", "protocol": "After 24 hours, the cells were treated with 100 μL of each drug at nine different concentrations (⅕ serial dilutions from 1000 nM). […] Here, a control (drug concentration: 0) that was not treated with a drug was also prepared. The cells were cultured (37° C., 5% CO2) for 3 or 6 days. 100 μL of the CellTiter-Glo reagent (using the CellTiter-Glo® Luminescent Cell Viability Assay kit (Promega, G7571)) was added to each well and pipetted. After incubating at room temperature (RT) for 10 minutes, luminescence was measured."}},
  "note": "Where two headings read alike, the source gives them in different places.",
  "data": [
    {"smiles": "CC[C@@]1(O)C(=O)OCc2c1cc1n(c2=O)Cc2c-1nc1cc3c(c4c1c2[C@@H](N)CC4)OCO3", "note": "(single isomer, unassigned) [PBX-7011]", "values": [
      {"measurement": "expression of anti-apoptotic proteins (survivin, cIAP2, Mcl-1, XIAP)", "setting": "[1]", "result": "decreased as the concentration increased"}
    ]},
    {"smiles": "CC[C@@]1(O)C(=O)OCc2c1cc1n(c2=O)Cc2c-1nc1ccccc1c2CCNC(C)C", "note": "[CKD-602]", "values": [
      {"measurement": "adverse drug reactions", "setting": "[2]", "result": "no adverse drug reactions, except an increase in gastric juice secretion"}
    ]},
    {"smiles": "CC[C@@]1(O)C(=O)OCc2c1cc1n(c2=O)Cc2c-1nc1cc(F)c(C)c3c1c2[C@@H](NC(=O)CO)CC3", "note": "[Dxd]", "values": [
      {"measurement": "cytotoxicity / activity relative to SN-38", "setting": "[3]", "result": "approximately 10 times"}
    ]},
    {"smiles": "CC[C@@]1(O)C(=O)OCc2c1cc1n(c2=O)Cc2c-1nc1cc(F)c(C)c3c1c2[C@@H](N)CC3", "note": "[Exatecan, reference compound]", "values": [
      {"measurement": "expression of anti-apoptotic proteins (survivin, cIAP2, Mcl-1, XIAP)", "setting": "[1]", "result": "strongly inhibit the expression of an anti-apoptotic protein"}
    ]},
    {"smiles": "CC[C@@]1(O)C(=O)OCc2c1cc1n(c2=O)Cc2cc3cc4c(cc3nc2-1)OCO4", "note": "[FL118, reference compound]", "values": [
      {"measurement": "expression of anti-apoptotic proteins (survivin, cIAP2, Mcl-1, XIAP)", "setting": "[1]", "result": "strongly suppresses the expression of an anti-apoptotic protein"},
      {"measurement": "IC50", "setting": "[3]; majority of 140 cell lines originating from various cancer types", "result": "< 100", "unit": "nM"},
      {"measurement": "DDX5 degradation / inhibition", "setting": "[4]", "result": "superior to other substances"}
    ]},
    {"smiles": "CC[C@@]1(O)C(=O)OCc2c1cc1n(c2=O)Cc2c-1nc1cc3c(c4c1c2[C@@H](NC(=O)CO)CC4)OCO3", "note": "[PBX-7014]", "values": [
      {"measurement": "expression of anti-apoptotic proteins (survivin, cIAP2, Mcl-1, XIAP)", "setting": "[1]", "result": "decreased as the concentration increased"}
    ]},
    {"smiles": "CC[C@@]1(O)C(=O)OCc2c1cc1n(c2=O)Cc2c-1nc1cc3c(c4c1c2[C@@H](NC(=O)[C@@H](C)O)CC4)OCO3", "note": "[PBX-7016]", "values": [
      {"measurement": "expression of anti-apoptotic proteins (survivin, cIAP2, Mcl-1, XIAP)", "setting": "[1]", "result": "decreased as the concentration increased"},
      {"measurement": "conversion from lactone form to carboxylate form", "setting": "[5]", "result": "more rapidly and at a higher rate than other reference compounds"},
      {"measurement": "clearance from the blood", "setting": "[6]", "result": "cleared from the blood very quickly"},
      {"measurement": "concentration at 0.167 h", "setting": "[7]; ip, Mean", "result": 164, "unit": "ng/mL"},
      {"measurement": "concentration at 1 h", "setting": "[7]; ip, Mean", "result": 16.1, "unit": "ng/mL"},
      {"measurement": "concentration at 0.167 h", "setting": "[7]; ip, individual mice", "result": 158, "unit": "ng/mL"},
      {"measurement": "concentration at 0.167 h", "setting": "[7]; iv, Mean", "result": 59.3, "unit": "ng/mL"},
      {"measurement": "concentration at 1 h", "setting": "[7]; iv, Mean", "result": 6.9, "unit": "ng/mL"},
      {"measurement": "concentration at 0.167 h", "setting": "[7]; iv, individual mice", "result": 76.2, "unit": "ng/mL"},
      {"measurement": "DDX5 degradation / inhibition", "setting": "[4]", "result": "inhibited DDX5 in a concentration-dependent manner"}
    ]},
    {"smiles": "CC[C@@]1(O)C(=O)OCc2c1cc1n(c2=O)Cc2c-1nc1cc3c(c4c1c2[C@@H](NC(=O)[C@@H](O)C1CC1)CC4)OCO3", "note": "[PBX-7024]", "values": [
      {"measurement": "apoptotic efficacy (cell viability)", "setting": "[8]", "result": "potent apoptotic efficacy"}
    ]},
    {"smiles": "CCc1c2c(nc3ccc(O)cc13)-c1cc3c(c(=O)n1C2)COC(=O)[C@]3(O)CC", "note": "[SN-38]", "values": [
      {"measurement": "IC50", "setting": "[3]; several cell lines", "result": "nanomolar range"}
    ]}
  ]
}
